# Data published in patent US20180185302A1, “METHODS FOR DOWNREGULATING APOBEC3B” (Regents of the University of Minnesota, priority 2015, published 2018).
# Entries after “also recorded” stand apart in the source; their conditions may differ.
# What was measured:
# Type in all cases: cell-based, human
# APOBEC3B [1] = test: PMA induction of APOBEC3B mRNA in MCF10A cells (RT-qPCR)
# Description: (§1) A panel of immortalized normal human epithelial cells lines and breast cancer cell lines was treated with PMA or equal amounts of DMSO as a negative control, and previously validated reverse transcription quantitative PCR (RT-qPCR) assays were used to measure mRNA levels of all eleven human APOBEC family members. APOBEC3B mRNA was induced specifically by PMA treatment of several lines including the immortalized normal breast epithelial cell line MCF10A (FIG. 1A and FIG. 6). Under standard cell culture conditions, MCF10A expresses low levels of APOBEC3B and APOBEC3F, even lower levels of APOBEC3G and APOBEC3H, high levels of APOBEC3C, and undetectable levels of all other APOBEC family members.
# (§2) APOBEC3B was induced with as little as 1 ng/mL PMA, and its induction was dose responsive and near maximal at 25 ng/mL PMA (FIG. 1B, histogram). APOBEC3B mRNA levels correlated with a rise in steady-state protein levels as measured by immunoblotting with a rabbit anti-APOBEC3B monoclonal antibody (described in U.S. Provisional Patent Application No. 62/186,109. filed Jun. 29, 2015) and with enzymatic activity as measured by a gel-based single-stranded DNA cytosine deamination assay (FIG. 1B). […] APOBEC3B protein and activity levels lagged shortly behind mRNA levels and persisted through the duration of the time course (FIG. 1C, immunoblot and polyacrylamide gel). APOBEC3B upregulation may be a direct result of signal transduction as the kinetics of upregulation were not affected by simultaneously treating cells with the protein translation inhibitor cyclohexamide (FIG. 1D).
# (§3) For induction experiments, 2.5×10^5 cells were plated in a 6-well plate 1 day prior to drug treatment. PMA was then added to the media and incubated at 37° C. with 5% CO2 for six hours unless otherwise indicated. Cells were harvested, RNA was extracted, and RT-qPCR was performed as previously reported (Refsland et al. 2010, Nucleic Acids Res 38:4274-4284). For experiments utilizing inhibitors, cells were pretreated with inhibitors 30 minutes prior to PMA induction (25 ng/mL). PMA (Thermo Fisher Scientific, Inc., Waltham, Mass.), cyclohexamide (Acros Organics, Thermo Fisher Scientific, Inc., Waltham, Mass.), Gö6983 (Cayman Chemical co., Ann Arbor, Mich.), LY294002 (EMD Chemicals, Merck KGaA, Darmstadt, Germany), U0126 (EMD Chemicals, Merck KGaA, Darmstadt, Germany), AEB071 (Medchemexpress, Monmouth Junction, N.J.), Gö6976 (Enzo Life Sciences, Inc., Farmingdale, N.Y.), BAY 11-7082 (R&D Systems, INc., Minneapolis, Minn.), and MG132 (Thermo Fisher Scientific, Inc., Waltham, Mass.) were stored as recommended. NIKi/Compound 31 was synthesized as described (Li et al., 2013, Bioorganic & Medicinal Chemistry Letters 23:1238-1244).
# APOBEC3B [2] = test: single-stranded DNA cytosine deaminase activity of whole cell extracts after PMA; details: MCF10A cell extracts
# Description: as §2
# Deaminase activity assays were performed as previously reported (Vieira et al., 2014, mBio 5(6):e02234-14). In short, 4 pmol of a fluorescently labeled oligo with a single target cytosine (5 -[…]-fluorescein, SEQ ID NO:2) was treated with cell extract containing 0.025 U/rxn UDG (New England BioLabs, Inc., Ipswich, Mass.), UDG buffer, and 1.75 U/rxn RNase A (Qiagen, Hilden, Germany) for two hours. […] Gels were scanned using a FujiFilm Image Reader FLA-7000.
# APOBEC3B promoter region = test: chromatin immunoprecipitation (ChIP) at the APOBEC3B promoter after PMA; details: MCF10A cells, PMA 25 ng/mL two hours, ChIP-qPCR
# Description: We next performed a series of chromatin immunoprecipitation (ChIP) experiments to determine whether the canonical or noncanonical NFκB pathway is responsible for upregulating APOBEC3B. Primer sets were designed for each of the predicted NFκB binding sites near the APOBEC3B transcriptional start site, as well as a control set in the promoter region of NFKIB (FIG. 3E). ChIP was performed for RELA, RELB, RNA POL II (positive control), and isotype matched IgG (negative control) RELA, RELB, and RNA POL II were all bound to the NFKIB promoter following PMA treatment (FIG. 3F and FIG. 3G). In addition, we found RNA POL II strongly bound to the APOBEC3B gene near the transcriptional start site (FIG. 3F and FIG. 3G). We also found RELB bound both near the transcriptional start site and at sites 4 and 5, which are located in intron 2 and too close together to be distinguished by this procedure. Binding also may occur at lower levels at site 3 in intron 1, but the IgG signal was too high to distinguish background from actual binding. These ChIP data strongly implicate the noncanonical NFκB pathway, specifically RELB (and not RELA), in directly inducing APOBEC3B transcription in response to PMA activation of PKC.
# MCF10A cells were treated with either DMSO or 25 ng/mL PMA for two hours. […]
# APOBEC family members = test: mRNA levels of other APOBEC family members after PMA (RT-qPCR); details: MCF10A cells, six hours
# Description: as §1
# For induction experiments, 2.5×10^5 cells were plated in a 6-well plate 1 day prior to drug treatment. PMA was then added to the media and incubated at 37° C. with 5% CO2 for six hours unless otherwise indicated. Cells were harvested, RNA was extracted, and RT-qPCR was performed as previously reported (Refsland et al. 2010, Nucleic Acids Res 38:4274-4284). For experiments utilizing inhibitors, cells were pretreated with inhibitors 30 minutes prior to PMA induction (25 ng/mL). […]
# APOBEC3B [3] = test: APOBEC3B protein levels by immunoblotting after PMA; details: MCF10A cells
# Description: as §2
# (§4) The development and validation of the rabbit monoclonal antibody (mAb) against APOBEC3B is as described elsewhere (U.S. Provisional Patent Application No. 62/186,109, filed Jun. 29, 2015). The mAb used (referred to as 5210-87-13) effectively binds endogenous APOBEC3B in a variety of assays. The anti-tubulin antibody was obtained from Covance Inc., Princeton, N.J.
# [4] = test system: RELA, NKB1, RELB and NFKB2; test: RNA-seq of NFκB subunit mRNA in MCF10A cells treated with PMA; details: PMA vs vehicle
# Description: Canonical signaling is known to require IKKβ, whereas non-canonical NFκB signaling is strictly dependent on IKKα-catalyzed phosphorylation of p100. To distinguish between these pathways, MCF10A cells were pretreated with a titration of TPCA-1 concentrations spanning the IC50 values of both proteins, and then PMA was used to induce APOBEC3B upregulation. […] As an additional control, TNFα, which is regulated by the canonical pathway, was analyzed.
# (§5) Two sets of MCF10A cells in duplicate were treated every eight hours with media supplemented with PMA or DMSO for 48 hours. At 48 hours, RNA was extracted using an RNeasy Mini Kit (Qiagen, Hilden, Germany). Total RNA was submitted to the University of Minnesota Genomics Center for sequencing on the Illumina HiSeq 2000 platform. Raw reads were analyzed using both DESeq2 (Love et al., 2014, Genome Biol. 15:550) and the Tuxedo suite (Trapnell et al., 2012, Nat Protoc.7:562-578) to identify changes in mRNA expression in PMA treated versus untreated cells.
# PKCα (PRKCA) = test: RNA-seq of PKC isoform mRNA in MCF10A cells treated with PMA; details: PMA vs vehicle
# Text: PKCα mRNA levels were unchanged by PMA treatment, consistent with a mechanism by which PMA signals through pre-existing PKCα to ultimately stimulate APOBEC3B transcription (FIG. 2G). PKCα expression was depleted using three independent shRNA-encoding lentiviral constructs. […] Immunoblots confirmed PKCα knockdown and proportional reductions in APOBEC3B (FIG. 21). Altogether, the pharmacologic and genetic approaches provide a strong case for PKCα as the predominant PKC isoform driving PMA-mediated upregulation of APOBEC3B.
# as §5
# cancer cell lines = test: cell cycle and cell viability of cancer cell lines treated with AEB071; details: 10 μM, 48 hours, data not shown
# APOBEC3B [5] = test: endogenous APOBEC3B protein in cancer cell lines treated with AEB071 (immunoblot); details: 10 μM, 48 hours
# Description: (§6) Each line was treated for 48 hours with 10 μM AEB071, and then APOBEC3B mRNA and protein levels were quantified by RT-qPCR and immunoblotting. […] This is important since higher concentrations of AEB071 are known to cause cell cycle perturbations and apoptosis in certain cell types.
# as §4
# APOBEC3B [6] = test: inhibitor pretreatment before PMA-induced APOBEC3B upregulation in MCF10A cells (RT-qPCR)
# Description: PMA is a well-known agonist of PKC, but it also affects other cellular processes. To determine whether APOBEC3B induction by PMA occurs through PKC signal transduction or an alternative mechanism, we leveraged a panel of existing PKC inhibitors that each vary with respect to class selectivity. MCF10A cells were pre-treated for 30 minutes with varying concentrations of the pan-PKC inhibitor Gö6983 (Gschwendt et al., FEBS Lett. 392:77-80, 1996) and then treated for six hours with PMA (25 ng/mL). […] As additional controls, MCF10A cells were pretreated in parallel with the phosphoinositol 3 kinase (PI3K) inhibitor, LY294002, and the mitogen-activated protein kinase kinase (MEK) inhibitor, U0126, prior to PMA induction (FIGS. 2B and 2C).
# as §3
# APOBEC3B [7] = test: endogenous APOBEC3B mRNA in cancer cell lines treated with AEB071 (RT-qPCR); details: 10 μM, 48 hours
# Description: FIG. 4. The PKC-NFκB pathway drives endogenous APOBEC3B expression in cancer cells. (A) APOBEC3B mRNA levels in representative breast, ovarian, and head/neck cancer cell lines. mRNA expression is reported as the mean of three independent RT-qPCR reactions normalized to TBP (error bars report SD from triplicate assays). (B) Representative PKC inhibitor treated cancer cell line experiment. Each line was treated with AEB071 (10 μM) or vehicle control for 48 hours prior to analysis. The histogram reports APOBEC3B mRNA levels normalized to the vehicle treated control for each line.
# Four breast cancer cell lines, four ovarian cancer cell lines, four bladder cancer cell lines, and four head/neck cancer cell lines were analyzed to determine whether the constitutively high levels of endogenous APOBEC3B observed in many human cancer cell lines occurs through the PKC pathway. The selected cell lines expressed a 10-fold range of endogenous APOBEC3B mRNA levels (FIG. 4A).
# as §6
smiles,measurement,setting,value
CCCCCCCCCCCCCC(=O)O[C@@H]1[C@@H](C)[C@@]2(O)[C@@H](C=C(CO)C[C@]3(O)C(=O)C(C)=C[C@@H]23)[C@@H]2C(C)(C)[C@]12OC(C)=O [PMA],time after PMA treatment at which maximal APOBEC3B mRNA levels were observed,APOBEC3B [1]; PMA 25 ng/ml,by three hours post-treatment
same,time after PMA treatment at which significant APOBEC3B mRNA induction was detected,APOBEC3B [1]; PMA 25 ng/ml,30 min
same,PMA concentration at which APOBEC3B induction was near maximal,APOBEC3B [1]; six hours,25 ng/mL
same,lowest PMA concentration that induced APOBEC3B,APOBEC3B [1]; six hours,1 ng/mL
same,APOBEC3B activity levels (DNA cytosine deaminase),APOBEC3B [2],dose-responsive increases
same,recruitment of RELB and p105/p52 to the APOBEC3B promoter region,APOBEC3B promoter region,specifically and robustly recruited
same,changes in the expression levels of other APOBEC family members,APOBEC family members,no detectable changes
same,APOBEC3B protein levels,APOBEC3B [3],dose-responsive increases
same,"mRNA levels of NFκB components RELA, NKB1, RELB, NFKB2",[4],unaffected
same,PKCα mRNA levels,PKCα (PRKCA),unchanged
"CN1CCN(c2nc(C3=C(c4c[nH]c5ccccc45)C(=O)NC3=O)c3ccccc3n2)CC1 [AEB071, sotrastaurin]",effects on the cell cycle or cell viability,cancer cell lines,No effects on the cell cycle or cell viability
same,changes of APOBEC3B protein levels,APOBEC3B [5],largely mirrored the mRNA results
same,"potency relative to Gö6983, BIM-1, or Gö6983 in suppressing PMA-induced APOBEC3B",APOBEC3B [6],approximately 10 fold
same,suppression of PMA-induced APOBEC3B mRNA induction,"APOBEC3B [6]; 30-minute pretreatment with inhibitor, then PMA 25 ng/mL six hours",inhibited; also recorded: clear dose dependent response
same,concentration that caused complete suppression of APOBEC3B expression,"APOBEC3B [6]; pretreatment, PMA induced",500 nM
same,cell lines in which APOBEC3B mRNA levels were reduced by more than half,"APOBEC3B [7]; 16 breast, ovarian, bladder, head/neck cancer cell lines",7/16
same,APOBEC3B mRNA levels,APOBEC3B [7]; HCC1806 breast cancer cell line,reduced by more than half
same,APOBEC3B mRNA levels,APOBEC3B [7]; JSQ3 head/neck line,reduced by more than half
same,APOBEC3B mRNA levels,APOBEC3B [7]; MDA-MB-453 breast cancer cell line,reduced by more than half
same,APOBEC3B mRNA levels,APOBEC3B [7]; MDA-MB-468 breast cancer cell line,reduced by more than half
same,APOBEC3B mRNA levels,APOBEC3B [7]; OVCAR5 ovarian cancer cell line,reduced by more than half
same,APOBEC3B mRNA levels,APOBEC3B [7]; SQ-20B head/neck line,reduced by more than half
same,APOBEC3B mRNA levels,APOBEC3B [7]; TR146 head/neck line,reduced by more than half
